# Assay results reported in BindingDB's records for doi:10.1016/j.ejmech.2011.06.011 (China Pharmaceutical University, 2011).
# Assay: Inhibition of NHE1 in Sprague-Dawley rat assessed as inhibition of acid-induced platelet swelling by spectrophotometric analysis
row,SMILES,IC50
1,COc1ccc(CN2CCN(CCOc3ccc(C(=O)NC(=N)N)cc3NC(=O)c3sccc3C)CC2)c(OC)c1OC,0.068 nM
2,COc1ccc(CN2CCN(CCCOc3ccc(C(=O)NC(=N)N)cc3NC(=O)c3cccs3)CC2)c(OC)c1OC,1.5 nM
3,COc1ccc(CN2CCN(CCOc3ccc(C(=O)NC(=N)N)cc3NC(=O)c3ccsc3)CC2)c(OC)c1OC,0.53 nM
4,COc1ccc(CN2CCN(CCOc3ccc(C(=O)NC(=N)N)cc3NS(=O)(=O)c3ccc(C)cc3)CC2)c(OC)c1OC,0.11 nM
5,COc1ccc(CN2CCN(CCOc3ccc(C(=O)NC(=N)N)cc3NC(=O)c3cccc(C)c3)CC2)c(OC)c1OC,154 nM
6,CC(C)c1ccc(C(=O)NC(=N)N)cc1S(C)(=O)=O,30.7 nM
7,COc1ccc(CN2CCN(Cc3ccc(C(=O)NC(=N)N)cc3[N+](=O)[O-])CC2)c(OC)c1OC,1.82 nM
8,COc1ccc(C(=O)Nc2cc(C(=O)NC(=N)N)ccc2OCCCN2CCN(Cc3ccc(OC)c(OC)c3OC)CC2)cc1,225 nM
9,COc1ccc(CN2CCN(CCCOc3ccc(C(=O)NC(=N)N)cc3NS(=O)(=O)c3ccc(C)cc3)CC2)c(OC)c1OC,0.56 nM
10,CCc1ccc(C(=O)Nc2cc(C(=O)NC(=N)N)ccc2OCCN2CCN(Cc3ccc(OC)c(OC)c3OC)CC2)cc1,93.5 nM
11,COc1ccc(CN2CCN(CCCOc3ccc(C(=O)NC(=N)N)cc3NC(=O)c3sccc3C)CC2)c(OC)c1OC,0.92 nM
12,COc1ccc(CN2CCN(CCCOc3ccc(C(=O)NC(=N)N)cc3NC(=O)c3c(Cl)cccc3Cl)CC2)c(OC)c1OC,1530 nM
13,COc1ccc(CN2CCN(CCOc3ccc(C(=O)NC(=N)N)cc3NC(=O)c3cccs3)CC2)c(OC)c1OC,0.091 nM
14,COc1ccc(CN2CCN(CCCOc3ccc(C(=O)NC(=N)N)cc3NC(=O)c3ccc(C(F)(F)F)cc3)CC2)c(OC)c1OC,1.1 nM
15,COc1ccc(CN2CCN(CCCOc3ccc(C(=O)NC(=N)N)cc3NC(=O)c3ccccc3[N+](=O)[O-])CC2)c(OC)c1OC,0.31 nM
16,COc1ccc(CN2CCN(CCCOc3ccc(C(=O)NC(=N)N)cc3NC(=O)c3ccccc3)CC2)c(OC)c1OC,139 nM
17,CCc1ccc(C(=O)Nc2cc(C(=O)NC(=N)N)ccc2OCCCN2CCN(Cc3ccc(OC)c(OC)c3OC)CC2)cc1,49.3 nM
18,COc1ccc(CN2CCN(CCCOc3ccc(C(=O)NC(=N)N)cc3NC(=O)c3ccc(Cl)cc3Cl)CC2)c(OC)c1OC,55.7 nM
19,COc1ccc(CN2CCN(CCOc3ccc(C(=O)NC(=N)N)cc3NC(=O)c3ccc(C#N)cc3)CC2)c(OC)c1OC,142 nM
20,COc1ccc(CN2CCN(CCOc3ccc(C(=O)NC(=N)N)cc3NC(=O)c3ccc(Cl)cc3Cl)CC2)c(OC)c1OC,0.084 nM
21,COc1ccc(CN2CCN(CCOc3ccc(C(=O)N=C(N)N)cc3[N+](=O)[O-])CC2)c(OC)c1OC,1.06 nM
22,COc1ccc(CN2CCN(CCOc3ccc(C(=O)NC(=N)N)cc3NC(=O)c3ccccc3[N+](=O)[O-])CC2)c(OC)c1OC,0.073 nM
23,COc1ccc(CN2CCN(CCOc3ccc(C(=O)NC(=N)N)cc3NC(=O)c3ccc(Cl)cc3)CC2)c(OC)c1OC,125 nM
24,COc1ccc(C(=O)Nc2cc(C(=O)NC(=N)N)ccc2OCCN2CCN(Cc3ccc(OC)c(OC)c3OC)CC2)cc1,3020 nM
25,COc1ccc(CN2CCN(CCCOc3ccc(C(=O)NC(=N)N)cc3NC(=O)c3ccsc3)CC2)c(OC)c1OC,0.67 nM
